Laboratory results: ChEMBL document CHEMBL1201862, “PubChem BioAssay data set” (2004)
Values belong to the compound of their own block, whether it stands above or below them. Calls of active or inactive are those of the source.

Key:
Type in all cases: functional
[1] = target: Protein kinase C theta type (Homo sapiens, UniProt Q04759); assay: Navigating the Kinome. Panel member name: PRKCQ
[2] = target: Dual specificity protein kinase CLK2 (Homo sapiens, UniProt P49760)
[3] = target: Dual specificity mitogen-activated protein kinase kinase 1 (Homo sapiens, UniProt Q02750); assay: Navigating the Kinome. Panel member name: MAP2K1
[4] = target: Serine/threonine-protein kinase TBK1 (Homo sapiens, UniProt Q9UHD2); assay: Navigating the Kinome. Panel member name: TBK1
[5] = target: 5'-AMP-activated protein kinase catalytic subunit alpha-1 (Homo sapiens, UniProt Q13131)
[6] = target: ALK tyrosine kinase receptor (Homo sapiens, UniProt Q9UM73);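 note: ALK tested as one member of a kinase panel screen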
[7] = target: Proto-oncogene tyrosine-protein kinase receptor Ret (Homo sapiens, UniProt P07949);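 note: measured within a kinome-wide profiling panel, RET as the panel member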
[8] = target: Tyrosine-protein kinase receptor TYRO3 (Homo sapiens, UniProt Q06418);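 note: TYRO3 value obtained as one member of a kinome-wide profiling panel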
Tyrosine-protein kinase receptor TYRO3, sequence (Q06418 whole entry): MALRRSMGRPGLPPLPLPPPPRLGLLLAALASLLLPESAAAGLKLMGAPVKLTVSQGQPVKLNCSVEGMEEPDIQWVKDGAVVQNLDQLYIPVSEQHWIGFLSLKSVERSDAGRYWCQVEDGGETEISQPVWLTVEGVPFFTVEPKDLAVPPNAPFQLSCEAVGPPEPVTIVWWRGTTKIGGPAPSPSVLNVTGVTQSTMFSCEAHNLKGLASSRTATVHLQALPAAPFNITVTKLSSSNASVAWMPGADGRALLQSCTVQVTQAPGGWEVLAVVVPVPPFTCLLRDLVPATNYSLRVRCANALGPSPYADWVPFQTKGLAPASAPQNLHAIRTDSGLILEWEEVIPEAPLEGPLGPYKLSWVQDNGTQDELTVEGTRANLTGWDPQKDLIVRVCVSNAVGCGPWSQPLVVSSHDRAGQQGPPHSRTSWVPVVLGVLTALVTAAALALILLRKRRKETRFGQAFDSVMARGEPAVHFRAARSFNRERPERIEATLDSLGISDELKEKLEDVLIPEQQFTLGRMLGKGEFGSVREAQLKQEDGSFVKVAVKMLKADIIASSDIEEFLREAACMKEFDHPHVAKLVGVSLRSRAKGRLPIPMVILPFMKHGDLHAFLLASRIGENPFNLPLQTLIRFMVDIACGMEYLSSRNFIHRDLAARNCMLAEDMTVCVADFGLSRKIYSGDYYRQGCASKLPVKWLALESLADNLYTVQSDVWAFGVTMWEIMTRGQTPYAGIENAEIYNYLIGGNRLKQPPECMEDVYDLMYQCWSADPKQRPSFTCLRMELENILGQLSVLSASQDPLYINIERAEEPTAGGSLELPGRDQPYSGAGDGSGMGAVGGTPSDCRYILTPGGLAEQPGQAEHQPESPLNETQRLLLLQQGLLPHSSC

[9] = target: Serine/threonine-protein kinase D3 (Homo sapiens, UniProt O94806);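 note: determined within a kinase panel screen, with PRKCN as the panel member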
[10] = target: Death-associated protein kinase 3 (Homo sapiens, UniProt O43293);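 note: measured as one member of a kinome-wide profiling panel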
Death-associated protein kinase 3, sequence (O43293 whole entry): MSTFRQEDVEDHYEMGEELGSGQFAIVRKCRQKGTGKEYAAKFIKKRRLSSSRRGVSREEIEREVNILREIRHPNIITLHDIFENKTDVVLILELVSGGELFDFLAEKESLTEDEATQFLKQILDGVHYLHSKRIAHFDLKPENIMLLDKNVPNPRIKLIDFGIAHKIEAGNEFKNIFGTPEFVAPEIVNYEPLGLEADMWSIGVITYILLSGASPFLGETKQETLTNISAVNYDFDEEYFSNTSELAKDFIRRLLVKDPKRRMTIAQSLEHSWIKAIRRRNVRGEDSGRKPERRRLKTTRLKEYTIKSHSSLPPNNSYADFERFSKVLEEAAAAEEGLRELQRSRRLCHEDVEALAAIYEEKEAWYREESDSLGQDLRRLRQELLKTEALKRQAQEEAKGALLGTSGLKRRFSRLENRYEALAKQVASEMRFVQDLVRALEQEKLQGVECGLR

Activin receptor type-1 = Activin receptor type-1 (Homo sapiens, UniProt Q04771); assay: Navigating the Kinome. Panel member name: ACVR1
[11] = target: Mitogen-activated protein kinase 8 (Homo sapiens, UniProt P45983);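 note: value comes from one member of a kinome-wide kinase profiling panel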
[12] = target: Serine/threonine-protein kinase pim-1 (Homo sapiens, UniProt P11309)
Serine/threonine-protein kinase pim-1, sequence (P11309 whole entry): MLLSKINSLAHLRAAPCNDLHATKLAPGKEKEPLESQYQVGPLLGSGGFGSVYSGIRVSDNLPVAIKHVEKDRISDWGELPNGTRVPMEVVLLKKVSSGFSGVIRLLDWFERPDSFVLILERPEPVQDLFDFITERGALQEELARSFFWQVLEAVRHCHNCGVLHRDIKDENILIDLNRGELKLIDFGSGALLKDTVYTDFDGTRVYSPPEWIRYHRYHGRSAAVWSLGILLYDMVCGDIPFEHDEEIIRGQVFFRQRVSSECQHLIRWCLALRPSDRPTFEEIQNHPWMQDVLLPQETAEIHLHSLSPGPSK

Aurora kinase A = Aurora kinase A (Homo sapiens, UniProt O14965);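 note: value from the Navigating the Kinome kinase panel profiling, panel entry STK6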
[13] = target: Tyrosine-protein kinase BTK (Homo sapiens, UniProt Q06187)
[14] = target: Serine/threonine-protein kinase PAK 4 (Homo sapiens, UniProt O96013);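 note: value obtained within a kinome profiling panel in which PAK4 was one of the panel members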
[15] = target: Fibroblast growth factor receptor 1 (Homo sapiens, UniProt P11362)
[16] = target: Casein kinase I isoform alpha (Homo sapiens, UniProt P48729)
LIM domain kinase 1 = LIM domain kinase 1 (Homo sapiens, UniProt P53667); assay: Navigating the Kinome. Panel member name: LIMK1
[17] = target: High affinity nerve growth factor receptor (Homo sapiens, UniProt P04629);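 note: NTRK1 tested as one member of a kinome-wide profiling panel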
[18] = target: Glycogen synthase kinase-3 alpha (Homo sapiens, UniProt P49840);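 note: GSK3A result taken from a broad kinome-wide kinase panel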
[19] = target: Mitogen-activated protein kinase kinase kinase kinase 2 (Homo sapiens, UniProt Q12851);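 note: measured as one member of a kinome-wide kinase panel, with MAP4K2 as the panel entry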
[20] = target: Hepatocyte growth factor receptor (Homo sapiens, UniProt P08581);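 note: kinase panel profiling across the kinome, with MET as the panel member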
Activated CDC42 kinase 1 = Activated CDC42 kinase 1 (Homo sapiens, UniProt Q07912); assay: Navigating the Kinome. Panel member name: ACK1
[21] = target: Receptor-type tyrosine-protein kinase FLT3 (Homo sapiens, UniProt P36888);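 note: FLT3 was tested as one member of a kinome-wide kinase panel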
[22] = target: Serine/threonine-protein kinase Chk1 (Homo sapiens, UniProt O14757);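 note: measured as one member of a kinome-wide kinase profiling panel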
[23] = target: Tyrosine-protein kinase ABL1 (Homo sapiens, UniProt P00519)
[24] = target: Cyclin-dependent kinase 5 (Homo sapiens, UniProt Q00535);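 note: CDK5 measured as one member of a kinase profiling panel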
[25] = target: Insulin-like growth factor 1 receptor (Homo sapiens, UniProt P08069); assay: Navigating the Kinome. Panel member name: IGF1R
[26] = target: Dual specificity tyrosine-phosphorylation-regulated kinase 1B (Homo sapiens, UniProt Q9Y463); assay: Navigating the Kinome. Panel member name: DYRK1B
[27] = target: cAMP-dependent protein kinase catalytic subunit PRKX (Homo sapiens, UniProt P51817)
[28] = target: Platelet-derived growth factor receptor alpha (Homo sapiens, UniProt P16234); assay: Navigating the Kinome. Panel member name: PDGFRA
Platelet-derived growth factor receptor alpha, sequence (P16234 whole entry): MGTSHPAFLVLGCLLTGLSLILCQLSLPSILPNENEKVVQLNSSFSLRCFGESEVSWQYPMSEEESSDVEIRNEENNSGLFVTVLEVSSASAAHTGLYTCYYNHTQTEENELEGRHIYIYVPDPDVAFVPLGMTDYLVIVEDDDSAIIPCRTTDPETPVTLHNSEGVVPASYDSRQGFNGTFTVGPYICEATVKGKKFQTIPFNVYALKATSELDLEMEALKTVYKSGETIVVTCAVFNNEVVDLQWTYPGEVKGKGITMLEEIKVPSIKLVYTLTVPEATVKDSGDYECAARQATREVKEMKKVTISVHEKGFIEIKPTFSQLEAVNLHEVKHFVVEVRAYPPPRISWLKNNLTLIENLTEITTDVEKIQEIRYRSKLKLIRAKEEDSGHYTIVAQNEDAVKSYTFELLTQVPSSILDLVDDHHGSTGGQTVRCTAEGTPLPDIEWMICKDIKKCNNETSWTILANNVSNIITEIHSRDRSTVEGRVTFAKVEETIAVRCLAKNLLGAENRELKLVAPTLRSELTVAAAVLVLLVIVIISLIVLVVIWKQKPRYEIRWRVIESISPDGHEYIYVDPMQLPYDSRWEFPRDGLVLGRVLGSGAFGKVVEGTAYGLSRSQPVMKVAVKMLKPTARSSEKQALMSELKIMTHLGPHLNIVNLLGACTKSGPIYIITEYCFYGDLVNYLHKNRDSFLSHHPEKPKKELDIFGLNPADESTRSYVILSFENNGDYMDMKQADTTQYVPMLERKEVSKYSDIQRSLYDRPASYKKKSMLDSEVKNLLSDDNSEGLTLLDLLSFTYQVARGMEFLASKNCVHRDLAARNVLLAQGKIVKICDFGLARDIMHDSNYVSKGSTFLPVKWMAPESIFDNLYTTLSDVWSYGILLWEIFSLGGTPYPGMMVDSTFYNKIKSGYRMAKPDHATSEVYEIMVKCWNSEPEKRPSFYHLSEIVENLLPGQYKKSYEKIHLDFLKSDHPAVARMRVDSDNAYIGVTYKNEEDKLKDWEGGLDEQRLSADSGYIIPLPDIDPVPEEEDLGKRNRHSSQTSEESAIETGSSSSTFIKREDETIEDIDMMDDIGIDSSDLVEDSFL

[29] = target: Leucine-rich repeat serine/threonine-protein kinase 2 (Homo sapiens, UniProt Q5S007);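 note: value from a broad kinome-wide panel profiling study in which LRRK2 was one of the kinases tested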
Aurora kinase B = Aurora kinase B (Homo sapiens, UniProt Q96GD4)
[30] = target: Rho-associated protein kinase 1 (Homo sapiens, UniProt Q13464);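 note: measured within a broad kinome-wide panel profiling many kinases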
[31] = target: Tyrosine-protein kinase Fyn (Homo sapiens, UniProt P06241)
[32] = target: Serine/threonine-protein kinase Nek2 (Homo sapiens, UniProt P51955)
[33] = target: Cyclin-dependent kinase 8 (Homo sapiens, UniProt P49336); assay: Navigating the Kinome. Panel member name: CDK8
Cyclin-dependent kinase 8, sequence (P49336 whole entry): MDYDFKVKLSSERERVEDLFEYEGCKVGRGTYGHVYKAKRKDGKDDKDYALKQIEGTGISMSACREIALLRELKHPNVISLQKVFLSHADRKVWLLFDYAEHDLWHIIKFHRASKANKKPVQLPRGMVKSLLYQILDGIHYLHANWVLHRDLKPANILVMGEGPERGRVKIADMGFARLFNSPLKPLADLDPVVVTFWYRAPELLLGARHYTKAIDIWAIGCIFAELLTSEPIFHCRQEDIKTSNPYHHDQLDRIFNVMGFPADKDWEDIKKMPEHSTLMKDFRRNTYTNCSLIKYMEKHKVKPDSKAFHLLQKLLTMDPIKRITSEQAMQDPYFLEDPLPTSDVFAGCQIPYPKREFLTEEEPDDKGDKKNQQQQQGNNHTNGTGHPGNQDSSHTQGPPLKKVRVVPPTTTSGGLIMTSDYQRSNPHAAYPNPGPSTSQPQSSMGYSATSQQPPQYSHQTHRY

[34] = target: Cyclin-dependent kinase 7 (Homo sapiens, UniProt P50613);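 note: value comes from a kinome-wide kinase profiling panel in which CDK7 is one member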
[35] = target: Vascular endothelial growth factor receptor 1 (Homo sapiens, UniProt P17948);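 note: measured within a kinome-wide profiling panel, FLT1 as the panel member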
[36] = target: Glycogen synthase kinase-3 beta (Homo sapiens, UniProt P49841);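 note: value comes from a broad kinome profiling panel, with GSK3B as the panel member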
[37] = target: Cyclin-dependent kinase 9 (Homo sapiens, UniProt P50750);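 note: value from the CDK9 entry of a kinome-spanning kinase panel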
[38] = target: BDNF/NT-3 growth factors receptor (Homo sapiens, UniProt Q16620);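 note: NTRK2 measured as one member of a broad kinome-wide kinase profiling panel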
[39] = target: cAMP-dependent protein kinase catalytic subunit alpha (Homo sapiens, UniProt P17612)
[40] = target: Dual specificity protein kinase CLK4 (Homo sapiens, UniProt Q9HAZ1)
[41] = target: Mitogen-activated protein kinase kinase kinase kinase 4 (Homo sapiens, UniProt O95819)
[42] = target: Macrophage-stimulating protein receptor (Homo sapiens, UniProt Q04912); assay: Navigating the Kinome. Panel member name: MST1R
[43] = target: Macrophage colony-stimulating factor 1 receptor (Homo sapiens, UniProt P07333);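 note: value comes from the Navigating the Kinome screening panel, CSF1R member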
Macrophage colony-stimulating factor 1 receptor, sequence (P07333 whole entry): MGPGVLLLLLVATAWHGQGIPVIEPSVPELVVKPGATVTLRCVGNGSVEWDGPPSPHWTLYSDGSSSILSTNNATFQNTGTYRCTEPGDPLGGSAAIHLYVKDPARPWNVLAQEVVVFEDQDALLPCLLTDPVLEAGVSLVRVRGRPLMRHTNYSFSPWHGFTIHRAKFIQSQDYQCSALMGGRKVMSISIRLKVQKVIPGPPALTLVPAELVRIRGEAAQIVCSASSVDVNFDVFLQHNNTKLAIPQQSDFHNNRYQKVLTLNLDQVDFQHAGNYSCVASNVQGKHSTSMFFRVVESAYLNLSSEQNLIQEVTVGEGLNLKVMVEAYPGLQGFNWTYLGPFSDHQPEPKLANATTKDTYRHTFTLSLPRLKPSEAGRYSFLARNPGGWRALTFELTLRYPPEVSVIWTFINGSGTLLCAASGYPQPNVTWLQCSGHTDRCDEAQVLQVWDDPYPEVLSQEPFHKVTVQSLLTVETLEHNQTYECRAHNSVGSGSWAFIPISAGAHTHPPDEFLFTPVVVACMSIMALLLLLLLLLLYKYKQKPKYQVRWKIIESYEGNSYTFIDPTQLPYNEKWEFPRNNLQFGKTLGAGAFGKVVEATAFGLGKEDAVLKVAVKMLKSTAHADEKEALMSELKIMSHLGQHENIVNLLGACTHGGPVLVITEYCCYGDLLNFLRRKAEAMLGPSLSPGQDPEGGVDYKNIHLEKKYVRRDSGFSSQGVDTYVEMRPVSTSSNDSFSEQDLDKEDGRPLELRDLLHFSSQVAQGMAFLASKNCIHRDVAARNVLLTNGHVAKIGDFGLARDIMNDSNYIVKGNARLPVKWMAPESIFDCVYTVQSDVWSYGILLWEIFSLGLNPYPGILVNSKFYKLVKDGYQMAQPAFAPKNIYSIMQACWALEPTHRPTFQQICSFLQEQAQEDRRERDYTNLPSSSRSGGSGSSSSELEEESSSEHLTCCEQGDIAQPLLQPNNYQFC

[44] = target: Dual specificity tyrosine-phosphorylation-regulated kinase 1A (Homo sapiens, UniProt Q13627);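 note: measured against DYRK1A as one member of a broad kinome profiling panel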
[45] = target: Inhibitor of nuclear factor kappa-B kinase subunit epsilon (Homo sapiens, UniProt Q14164); assay: Navigating the Kinome. Panel member name: IKBKE
[46] = target: Calcium/calmodulin-dependent protein kinase type II subunit alpha (Homo sapiens, UniProt Q9UQM7); assay: Navigating the Kinome. Panel member name: CAMK2A
[47] = target: Leukocyte tyrosine kinase receptor (Homo sapiens, UniProt P29376); assay: Navigating the Kinome. Panel member name: LTK
Leukocyte tyrosine kinase receptor, sequence (P29376 whole entry): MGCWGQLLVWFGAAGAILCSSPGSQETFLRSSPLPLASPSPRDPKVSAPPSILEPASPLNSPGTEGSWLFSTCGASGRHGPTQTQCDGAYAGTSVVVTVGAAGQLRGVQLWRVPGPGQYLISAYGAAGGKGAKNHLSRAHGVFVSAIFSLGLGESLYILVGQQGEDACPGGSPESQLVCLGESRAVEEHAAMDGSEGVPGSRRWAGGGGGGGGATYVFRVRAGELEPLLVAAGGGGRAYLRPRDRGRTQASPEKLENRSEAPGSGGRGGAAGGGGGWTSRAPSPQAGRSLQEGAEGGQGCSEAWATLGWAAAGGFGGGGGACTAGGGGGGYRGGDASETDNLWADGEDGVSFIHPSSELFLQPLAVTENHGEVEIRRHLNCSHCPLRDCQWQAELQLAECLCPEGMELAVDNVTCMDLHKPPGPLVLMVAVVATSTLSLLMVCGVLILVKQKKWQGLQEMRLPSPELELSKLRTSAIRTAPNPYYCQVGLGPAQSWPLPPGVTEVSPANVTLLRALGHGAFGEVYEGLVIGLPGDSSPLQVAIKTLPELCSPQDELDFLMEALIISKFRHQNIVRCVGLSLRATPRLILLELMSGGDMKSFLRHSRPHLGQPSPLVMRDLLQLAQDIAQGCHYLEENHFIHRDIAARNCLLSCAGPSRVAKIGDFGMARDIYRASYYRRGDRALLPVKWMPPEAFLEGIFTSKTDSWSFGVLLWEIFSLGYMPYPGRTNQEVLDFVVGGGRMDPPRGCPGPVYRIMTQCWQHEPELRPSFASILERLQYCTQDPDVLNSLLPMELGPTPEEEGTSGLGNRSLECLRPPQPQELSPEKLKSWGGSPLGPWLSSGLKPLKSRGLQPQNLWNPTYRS

[48] = target: Tyrosine-protein kinase JAK2 (Homo sapiens, UniProt O60674);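 note: JAK2 tested as one member of a kinase panel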
[49] = target: Serine/threonine-protein kinase 17A (Homo sapiens, UniProt Q9UEE5)
[50] = target: Mast/stem cell growth factor receptor Kit (Homo sapiens, UniProt P10721);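 note: KIT entry within a kinase panel assay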
[51] = target: Casein kinase II subunit alpha (Homo sapiens, UniProt P68400)
[52] = target: Tyrosine-protein kinase JAK3 (Homo sapiens, UniProt P52333)
[53] = target: Tyrosine-protein kinase Blk (Homo sapiens, UniProt P51451);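 note: obtained as one member of a kinome-wide kinase assay panel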
[54] = target: Homeodomain-interacting protein kinase 2 (Homo sapiens, UniProt Q9H2X6);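 note: measured within a kinome-wide kinase profiling panel, HIPK2 being one panel member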
[55] = target: Protein kinase C gamma type (Homo sapiens, UniProt P05129)
[56] = target: Vascular endothelial growth factor receptor 2 (Homo sapiens, UniProt P35968)
[57] = target: G protein-coupled receptor kinase 5 (Homo sapiens, UniProt P34947); assay: Navigating the Kinome. Panel member name: GPRK5
[58] = target: Vascular endothelial growth factor receptor 3 (Homo sapiens, UniProt P35916);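 note: value from a kinome-wide profiling panel, with FLT4 as the panel member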
[59] = target: Homeodomain-interacting protein kinase 4 (Homo sapiens, UniProt Q8NE63)
[60] = target: Fibroblast growth factor receptor 3 (Homo sapiens, UniProt P22607)
[61] = target: Tyrosine-protein kinase receptor UFO (Homo sapiens, UniProt P30530)

Ki [1]: 20 µM (active)
Ki [2]: 50.1 µM (active)
Ki [3]: 79.4 µM (active)
Ki [4]: 7.94 µM (active)
Ki [5]: 15.8 µM (active)
Ki [6]: 31.6 µM (active)
Ki [7]: 12.6 µM (active)
Ki [8]: 7.94 µM (active)
Ki [9]: 10 µM (active)
Ki (Activin receptor type-1): 15.8 µM (active)
Ki [11]: 31.6 µM (active)
Ki [12]: 50.1 µM (active)
Ki (Aurora kinase A): 7.94 µM (active)
Ki [13]: 31.6 µM (active)
Ki [14]: 63.1 µM (active)
Ki [15]: 31.6 µM (active)
Ki [16]: 20 µM (active)
Ki (LIM domain kinase 1): 1.58 µM (active)
Ki [17]: 15.8 µM (active)
Ki [18]: 31.6 µM (active)
Ki [19]: 10 µM (active)
Ki [20]: 6.31 µM (active)
Ki (Activated CDC42 kinase 1): 50.1 µM (active)
Ki [21]: 15.8 µM (active)
Ki [22]: 2.51 µM (active)
Ki [23]: 12.6 µM (active)
Ki [24]: 6.31 µM (active)
Ki [25]: 79.4 µM (active)
Ki [26]: 3.98 µM (active)
Ki [27]: 10 µM (active)
Ki [28]: 12.6 µM (active)
Ki [29]: 6.31 µM (active)
Ki (Aurora kinase B): 25.1 µM (active)
Ki [30]: 79.4 µM (active)
Ki [31]: 50.1 µM (active)
Ki [32]: 3.16 µM (active)
Ki [33]: 5.01 µM (active)
Ki [34]: 20 µM (active)
Ki [35]: 20 µM (active)
Ki [36]: 20 µM (active)
Ki [37]: 3.98 µM (active)
Ki [38]: 100 µM (active)
Ki [39]: 15.8 µM (active)
Ki [40]: 501 nM (active)
Ki [41]: 63.1 µM (active)
Ki [42]: 50.1 µM (active)
Ki [43]: 15.8 µM (active)
Ki [44]: 2 µM (active)
Ki [45]: 15.8 µM (active)
Ki [46]: 15.8 µM (active)
Ki [47]: 3.98 µM (active)
Structure (SMILES): Nc1cc(=O)[nH]n1-c1ccccn1
Ki [10]: 20 µM (active)

Ki [48]: 20 nM (active)
Ki [8]: > 3.16 µM (inactive)
Ki [49]: > 3.16 µM (inactive)
Ki [50]: 158 nM (active)
Ki [51]: > 6.31 µM (inactive)
Ki [52]: 501 nM (active)
Ki [53]: 200 nM (active)
Ki [54]: 1.58 µM (active)
Ki [55]: 631 nM (active)
Ki [56]: 398 nM (active)
Ki [57]: 2.51 µM (active)
Ki [26]: > 2.51 µM (inactive)
Ki [28]: > 2.51 µM (inactive)
Ki [29]: 2.51 µM (active)
Ki [58]: 200 nM (active)
Ki [59]: > 7.94 µM (inactive)
Ki [33]: > 3.98 µM (inactive)
Ki [35]: 0.794 µM (active)
Ki [60]: 158 nM (active)
Ki [43]: 0.0398 µM (active)
Ki [46]: > 3.98 µM (inactive)
Ki [61]: 39.8 nM (active)
Ki [47]: 0.00158 µM (active)
Structure (SMILES): CN1CCN(c2ccc(C(=O)Nc3n[nH]c4ccc(Cc5cc(F)cc(F)c5)cc34)c(NC3CCOCC3)c2)CC1 [ENTRECTINIB]
Ki [10]: 2.51 µM (active)
